Entries after “also recorded” stand apart in the source; their conditions may differ. Square brackets hold non-standard residues; d marks the D form. Peptide text beside a SMILES is read from it.
Experiments:
[1] = tested on: streptozotocin-induced diabetic rat; conditions: cited from earlier work; for increase in tactile allodynia thresholds: systemic administration
[2] = tested on: mice rendered tolerant and dependent on morphine; experiment: Morphine tolerance in mice; type: in vivo, mouse; conditions: FIGS. 6-8
Excerpt: (§1) FIGS. 6-8 illustrate the ability of an endothelin antagonist to […] opiate analgesic tolerance in mice and rats rendered tolerant and dependent on morphine. The test method used to generate the data set forth in FIGS. 6-8 is disclosed in H. N. Bhargava et al., J. Pharmacol. Exp. Ther., 252(3), pp. 901-907 (1990). The method disclosed therein was modified slightly for mice because the smaller mice could not survive the morphine dose administered to the rats.

mice [3] = conditions: BQ123 and morphine 2, 4, or 8 mg/kg
Description: (§2) Tests also were performed on mice. The mice were housed and fed similar to the rats as described above taking into consideration the size differential between rats and mice. The mice were divided into groups identical to the rats, but administered different amounts of vehicle, opiate analgesic, and endothelin antagonist, as disclosed hereafter.

morphine tolerant mice = experiment: Naloxone-precipitated morphine withdrawal in mice; type: in vivo, mouse; conditions: 1 morphine 75 mg pellet for 3 days, naloxone 1 mg/kg i.p., BQ123 3 μg i.c.v.
Description: (§3) The effect of BQ123 (3 μg, i.c.v.) on naloxone-precipitated morphine withdrawal also was determined in mice. […] Tests also were performed to determine tolerance to analgesic effect in morphine tolerant dependent rats (6 morphine pellets in 7-day period).

[4] = Body weight in mice given BQ123 and morphine; type: in vivo, mouse; conditions: BQ123 and morphine 2, 4, or 8 mg/kg
Description: Tests also were performed on mice.

Male Sprague-Dawley rats [5] = experiment: Colonic temperature in rats; type: in vivo, rat; conditions: for effect on body temperature, drug alone: morphine 8 mg/kg s.c. or BQ123 10 μg i.c.v.
Description: (§4) Male Sprague-Dawley rats weighing 225 to 250 g (Sasco King Animal Co., Madison, Wis.) were housed in a room with controlled temperature (23±1° C.), humidity (50±10%), and light (6:00 a.m. to 6:00 p.m.) for at least four days prior to testing. Food and water were available to the rats continuously.
(§5) The rats were divided into four groups (FIG. 1): group 1 received vehicle (saline 5 μl, i.c.v. over 5 minutes) and vehicle (saline 100 μl/kg s.c.); group 2 received vehicle (saline 100 μl/kg, s.c.) and BQ123 (10 μg, i.c.v. in a volume of 5 μl over 5 minutes); group 3 received morphine (8 mg/kg, s.c. in a volume of 100 μl/kg) and vehicle (saline 100 μl/kg, s.c.); and group 4 received morphine (8 mg/kg, s.c. in a volume of 100 μl/kg) and BQ123 (10 μg, i.c.v. in a volume of 5 μl over 5 minutes). Vehicle or BQ123 treatment was performed 30 minutes prior to morphine administration.
Measurement of colonic temperature: The change in temperature in response to morphine was determined. The colonic temperature of each rat was recorded before and various times after morphine injection for a period of 360 minutes using a tele-thermometer. […] Rats used to measure tail flick latencies also were used to determine the colonic temperature. The differences in temperature response between various groups were compared by using student's t test. A value of P<0.05 was considered significant.

rat sciatic nerve = conditions: ET-1 200 to 800 μM applied to sciatic nerve, pretreatment; cited from earlier work
Body weight in rats = type: in vivo, rat; conditions: before any drug and seven hours after morphine, BQ123 10 μg i.c.v., morphine 8 mg/kg s.c.
Description: as §5
Effect on body weight: Body weight was measured in all groups of rats of FIG. 1. […] Body weight was measured before administering any drug and at the end of the experiment, i.e., seven hours after the administration of morphine.

mice [6] = experiment: Tail flick analgesia in mice; type: in vivo, mouse; conditions: morphine 2, 4, and 8 mg/kg s.c.
Description: as §2
(§6) Measurement of analgesic effect: The analgesic response to morphine was determined by the tail flick method. The tail flick latencies to thermal stimulation were determined before and 30, 60, 90, 120, 180, 210, 240, 270, 300, and 360 minutes after the morphine injection. […] A cutoff time of 10 seconds was used to prevent damage to the tail. The basal latency was subtracted from that induced by morphine. […] The differences in analgesic response to different doses of morphine were compared by using student's t test. A value of P<0.05 was considered significant.

Male Sprague-Dawley rats [7] = experiment: Tail flick analgesia in rats; type: in vivo, rat; conditions: for effect on tail flick latency (analgesia), drug alone: morphine 8 mg/kg s.c. or BQ123 10 μg i.c.v.
Description: as §4, §5, §6

Male Sprague-Dawley rats [8] = experiment: Catalepsy bar test in rats; type: in vivo, rat; conditions: for catalepsy (bar test), drug alone: 45 minutes after morphine or vehicle, morphine 8 mg/kg s.c. or BQ123 10 μg i.c.v.
Description: as §4, §5
Measurement of catalepsy: Rats were tested for catalepsy by the bar test. An aluminum bar 5 mm in diameter was placed 4 cm above the floor, and the animal's forepaw was gently placed on the bar. The time required for the animal to place at least one paw on the floor was measured with a maximum term of observation of 180 seconds. Behavioral evaluation of catalepsy was performed 45 minutes after the administration of morphine or its vehicle. Statistical tests were performed as described above.

[9] = tested on: morphine tolerant dependent rats; experiment: Tolerance to analgesic effect in morphine tolerant dependent rats; type: in vivo, rat; conditions: 6 morphine pellets in 7-day period, BQ123 10 μg i.c.v. twice a day for 7 days
Description: as §1, §3

[10] = tested on: Cr1:CD-1(ICR)BR mice and CXBK mice; conditions: ET-1 intraperitoneally, through μ1 sensitive pathway; cited from earlier work
[11] = BQ123 10 μg i.c.v. 30 minutes prior to morphine 8 mg/kg s.c.

What does the source list for `CCCCN(CCCC)C(=O)CN1C[C@H](c2ccc3c(c2)OCO3)[C@@H](C(=O)O)[C@@H]1c1ccc(OC)cc1` [ABT-627]?
antinociceptive effect following chronic administration ([1]; in drinking water for 7 days): maintained; increase in tactile allodynia thresholds [1]: 40 to 50%

Which “morphine tolerance after treatment with endothelin antagonist” value [2] does the source give for `Cc1noc(NS(=O)(=O)c2cccc3c(N(C)C)cccc23)c1C` [BMS182874] here?
The value was “reduced morphine tolerance”.

With `CC(C)C[C@@H]1NC(=O)[C@@H](C(C)C)NC(=O)[C@@H]2CCCN2C(=O)[C@@H](CC(=O)O)NC(=O)[C@@H](Cc2c[nH]c3ccccc23)NC1=O` [BQ123, cyclo(-D-Trp-D-Asp-Pro-D-Val-Leu-)] (cyclo(L[dW][dD]P[dV])) as the molecule, how does the “effect of BQ123 on morphine-induced hypothermia” value (mice [3]) read?
Its value is “not affected”.

What about the “effect on naloxone-precipitated morphine withdrawal symptoms” value (morphine tolerant mice) of the same molecule?
The value was “did not affect hypothermia, loss of body weight, jumping behavior, falls, diarrhea, fecal boli, urination, ptosis, writhing, and rearing behavior during withdrawal; also recorded: no effect on temperature, body weight, urination, diarrhea, jumping behavior, number of falls, ptosis, and grooming”.

What about the “effect on body weight” value [4] of the same molecule?
The value was “not affected”.

And the “duration of morphine hyperthermia in BQ123 pretreated rats” value (Male Sprague-Dawley rats [5]; [11])?
The value was “more than six”.

And the “effect of BQ123 on hyperthermic effect of morphine” value (Male Sprague-Dawley rats [5]; [11])?
The value was “significantly potentiated”.

What about the “effect on body temperature, drug alone” value (Male Sprague-Dawley rats [5]) of the same molecule?
The value was “did not produce any significant effect on body temperature”.

And the “effect on ET-1 induced hindpaw flinching” value (rat sciatic nerve)?
The value was “blocked”.

And the “morphine tolerance after treatment with endothelin antagonist” value [2]?
The value was “reduced morphine tolerance”.

What about the “change in body weight” value (Body weight in rats) of the same molecule?
Its value is “no change in body weight”.

What about the “duration of morphine analgesia with BQ123” value (mice [6]; BQ123 3 μg i.c.v.) of the same molecule?
The value was “more than 4 hours”.

And the “effect of BQ123 on morphine analgesia” value (mice [6]; BQ123 3 μg i.c.v.)?
Its value is “significantly potentiated morphine analgesia; also recorded: analgesia was potentiated”.

And the “duration of morphine analgesia in BQ123 pretreated rats” value (Male Sprague-Dawley rats [7]; [11])?
The value was “more than six”.

And the “effect of BQ123 on analgesic effect of morphine” value (Male Sprague-Dawley rats [7]; [11])?
The value was “significantly potentiated”.

What about the “effect on tail flick latency (analgesia), drug alone” value (Male Sprague-Dawley rats [7]) of the same molecule?
Its value is “did not produce any significant effect on tail flick latency”.

And the “catalepsy (bar test), drug alone” value (Male Sprague-Dawley rats [8])?
Its value is “did not produce any cataleptic effect”.

What about the “effect of BQ123 pretreatment on morphine-induced catalepsy” value (Male Sprague-Dawley rats [8]; [11]) of the same molecule?
Its value is “did not produce any change in morphine-induced catalepsy”.

And the “development of tolerance to morphine analgesic effect” value [9]?
Its value is “did not become tolerant to morphine”.

What does the source list for `CN1CC[C@]23c4c5ccc(O)c4O[C@H]2[C@@H](O)C=C[C@H]3[C@H]1C5` [morphine]?
effect on ET-1 induced nociception [10]: could be blocked by morphine; increase in tactile allodynia thresholds [1]: 90%; duration of hyperthermia, morphine alone (Male Sprague-Dawley rats [5]; morphine 8 mg/kg s.c.): about four; effect on body temperature, drug alone (Male Sprague-Dawley rats [5]): produced significant hyperthermia; effect on ET-1 induced hindpaw flinching (rat sciatic nerve): completely blocked; change in body weight (Body weight in rats): neither morphine nor BQ123 produced any acute effect on body weight; duration of increase in tail flick latency, morphine alone (mice [6]): 1.5 h; effect on mouse tail flick latency, morphine alone (mice [6]): significant increase in mouse tail flick latency; time after administration until which tail flick latencies were significantly increased, morphine alone (Male Sprague-Dawley rats [7]; morphine 8 mg/kg s.c.): three; effect on tail flick latency (analgesia), drug alone (Male Sprague-Dawley rats [7]): produced significant analgesia; tail flick latency (Male Sprague-Dawley rats [7]; morphine 8 mg/kg s.c., control about 2 seconds): more than 10 seconds; catalepsy (bar test), drug alone (Male Sprague-Dawley rats [8]): significantly increased catalepsy

— patent US7973064B2, “Method and composition for potentiating an opiate analgesic” (The Board of Trustees of the University of Illinois, priority 2001, dated 2011)
